The values that follow come from the METLIN SMRT retention time set (Domingo-Almenara et al. 2019).

The nature of the data set: gradient 5% acetonitrile 3 min, to 50% in 2 min, to 85% in 15 min, held 3 min, 100 µL/min. The settings on record: column: Zorbax Extend-C18 2.1 x 50 mm; eluents: water / acetonitrile, 0.1% formic acid. Put shortly: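 Using water and acetonitrile that each contained 0.1% formic acid, mixtures of ~100 pure standards were separated at 100 μL/min on a Zorbax Extend-C18 column (2.1 × 50 mm, 1.8 μm). The HPLC fed a quadrupole time-of-flight mass spectrometer working in positive and negative ionization mode, with dead and dwell volumes of 40 μL and 900 μL. Data were acquired over 3 months. Retention time was read from computationally picked adduct peaks after manual inspection of each.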
Regarding `Cc1nc(C)c2c(n1)N(CC1CCCCC1)C(=O)CC2`, the RP-LC retention time is 730 s.
`Cc1nc(-c2ccnc(N3CCOCC3)c2)no1` gave an RP-LC retention time of 614 s.
As for `CC(C)c1nncn1C1CCN(C(=O)c2ccc3c(c2)OCO3)C1` (centres undefined), the RP-LC retention time worked out at 612 s.
The compound `c1ccc(-c2noc(-c3cccnc3N3CCN(c4ccccc4)CC3)n2)cc1` registered an RP-LC retention time of 1280 s.
For `COC(=O)c1ccccc1Nc1c(-c2cccc(Br)c2)nc2cnccn12`, the RP-LC retention time was found to be 1090 s.
The compound `COc1cccc(NC(=O)CSc2cc(N3CCN(c4ccccc4F)CC3)ncn2)c1` came in with an RP-LC retention time of 1060 s.
Take `CN(CC1COCCO1)c1ccc(C(=O)O)cc1NC(=O)c1ccc(Cl)cc1` (centres undefined): the RP-LC retention time stood at 812 s.
For `CCOCCOC(=O)C1=C(C)NC2=C(C(=O)CCC2)C1c1cccc(OC)c1OC` (centres undefined), the RP-LC retention time stood at 732 s.
Compound `O=C(NCc1ccccc1Cl)C1CCN(c2cnc(N3CCCC3)nc2)CC1` registered an RP-LC retention time of 684 s.
Compound `Brc1ccc(OCc2nnc3sc(-c4ccncc4)nn23)cc1` had an RP-LC retention time of 811 s.
On to `CC(C)c1nnc(NC(=O)C2CCN(C(=O)c3ccc(F)cc3)CC2)s1`, for which the RP-LC retention time was found to be 727 s.
For the compound `COc1ccc(C(O)CN2CCN(c3ccccc3C)CC2)cc1OC` (centres undefined), the RP-LC retention time turned out to be 654 s.
The compound `Cc1cnc(-c2ccccc2C(C)C)nc1NCc1ccc(-n2ccnn2)cc1` had an RP-LC retention time of 770 s.
As to `CSc1ccc(CNC(=O)C2CCCN(c3nc4c(s3)c(C)nn4-c3ccc(F)cc3)C2)cc1` (centres undefined), the RP-LC retention time was determined as 1190 s.
`O=c1[nH]c2ccc(NCc3ccc(-c4ccccc4Cl)o3)cc2[nH]1` returned an RP-LC retention time of 717 s.
Regarding `COc1ccc(C(=O)Nc2nc3c(s2)CCc2cc(OC)ccc2-3)cc1`, the RP-LC retention time came out at 1080 s.
In turn, `Cc1ccccc1NC(=O)N1CCC(n2cnc3c(C)cccc3c2=O)CC1` registered an RP-LC retention time of 754 s.
For the compound `CN1CCN(C(=O)c2csc(N3CCN(c4ccc(Cl)cc4)CC3)n2)CC1`, the RP-LC retention time was determined as 686 s.
`Cc1cc(C2CCCN2C(=O)NC(C)(C)C)no1` (centres undefined) showed an RP-LC retention time of 752 s.
In the case of `O=C(CCC[C@@H]1[C@H]2CCCN3CCC[C@@H](CN1C(=O)c1cc(F)cc(F)c1)[C@@H]23)N1CCOCC1`, the RP-LC retention time is 605 s.
The same measure for `COc1cc(OC)cc(C(=O)N(C)CCc2noc(C3CCCCC3)n2)c1`: 926 s; for `C[C@H]1CN(C(=O)NC2CCCCC2)C[C@@H]1c1nc(-c2cccnc2)no1`: 784 s.
The same measure for `Cc1cc(N2CCN(c3ccccn3)CC2)n2ncc(-c3ccc(F)cc3)c2n1`: 732 s.
Regarding `CCOC(=O)COc1cc(-c2ccc(F)cc2)nc2ccc(NC(=O)c3ccco3)cc12`, the RP-LC retention time is 798 s.
Consider `COCCOCC1CCN(S(=O)(=O)c2ccc(C(F)(F)F)cc2)CC1`, for which the RP-LC retention time was found to be 937 s.
`Cc1ccc2c(c1)N(S(C)(=O)=O)CCC(C(=O)NC(C)c1ccccc1)O2` (centres undefined) showed an RP-LC retention time of 900 s.
In turn, `O=C(c1ccc(OCC2CCCN(C(=O)c3cccs3)C2)cc1)N1CCOCC1` (centres undefined) returned an RP-LC retention time of 620 s.
The compound `CNC(=O)C1CCN(Cc2noc(-c3ccc(F)cc3)n2)CC1` yielded an RP-LC retention time of 581 s.
Regarding `Cc1ccccc1-c1noc(CCc2nnc3ccc(N4CCOCC4)nn23)n1`, the RP-LC retention time amounted to 782 s.
Regarding `COc1cc(OC)c(NC(=O)N2CCc3nc(-c4ccccc4)ncc3C2)cc1Cl`, the RP-LC retention time was found to be 975 s.
Regarding `CCOc1nc2ccccc2nc1N1CCCC(C(=O)Nc2ccc(Cl)cc2)C1` (centres undefined), the RP-LC retention time stood at 1300 s.
Consider `Cc1ccc2c(c1)N(C(=O)Cn1cnc3c(sc4nc(-c5ccccc5)ccc43)c1=O)CCO2`, for which the RP-LC retention time worked out at 1130 s.
Compound `Cc1cnc(C(=O)N2CC(n3cc(COc4ccc(F)cc4)nn3)C2)cn1` had an RP-LC retention time of 731 s.
On to `COc1cccc(S(=O)(=O)N2CCc3c(c(CN(C(C)=O)c4ccccc4)nn3C)C2)c1`, for which the RP-LC retention time was 793 s.
With `Cc1cccc(N(C)C(=O)C(C)n2cnc3nc4c(cc3c2=O)CCCC4)c1` (centres undefined), the RP-LC retention time came out at 762 s.
Next, `COc1ccc(Nc2nc(N3CCN(c4ccc(F)cc4)CC3)nc3n[nH]nc23)cc1`: 840 s.
Next, `CCOc1ccccc1CNC(=O)C1CCCN(c2ccc(=O)n(-c3ccc(CC)cc3)n2)C1` (centres undefined): 978 s; `Cc1ccc(CNC(=O)Nc2cnc3c(c2)CCC3)cc1`: 534 s.
`O=C(NC1CCCC1)N1CCN(Cc2nc3cc(C(=O)N4CCCCC4)ccc3o2)CC1` gave an RP-LC retention time of 644 s.
On to `COc1ccccc1CNC(=O)CN1CCN(Cc2ccccc2F)C1=O`, for which the RP-LC retention time was determined as 715 s.
`O=C(C1CCN(S(=O)(=O)c2cc(-c3noc(C4CCC4)n3)cs2)CC1)N1CCCCCC1` yielded an RP-LC retention time of 1050 s.
Consider `Cc1sc2cc(C(=O)N3CCN(c4ccc(F)cc4)CC3)[nH]c2c1CN1CCOCC1`, for which the RP-LC retention time is 690 s.
With `Cc1ccc2nc(C(=O)NCc3ccc(C)o3)cn2c1`, the RP-LC retention time was found to be 660 s.
`CCn1c(=O)c2ccccc2n(Cc2nc(-c3ccc(SC)cc3)no2)c1=O` registered an RP-LC retention time of 926 s.
The compound `CC(C)(C)c1cc(N)n(C2CCS(=O)(=O)C2)n1` (centres undefined) came in with an RP-LC retention time of 623 s.
The same measure for `Cc1ccsc1C(=O)N1CCN(c2cc(-c3ccccc3)[nH]n2)CC1`: 744 s.
Next, `COc1ccc(NC(=O)Nc2ccc3c(c2)CCN3S(=O)(=O)c2ccc(C)cc2)cc1`: 953 s; `COCCc1nncn1C1CCN(S(=O)(=O)c2ccccc2C(F)(F)F)CC1`: 720 s.
With `CCCOCCOC(=O)C1=C(C)NC2=C(C(=O)C(C(=O)OC)C(C)C2)C1c1ccccc1F` (centres undefined), the RP-LC retention time was found to be 946 s.
On to `O=C(Cc1ccccc1F)N1CCCC1c1nc(-c2cccc(C(F)(F)F)c2)no1` (centres undefined), for which the RP-LC retention time amounted to 1110 s.
The same measure for `Cc1ccc(Nc2c(-c3ccc(N4CCOCC4)cc3)nc3cccc(C)n23)cc1`: 746 s.
Next, `O=C(NC1CC1)c1ccccc1OCC1CCCN(Cc2cc3ccccc3nc2Cl)C1` (centres undefined): 650 s; `CCCN1C(=O)COc2cc(-c3noc(C(=O)N4CCN(c5ccc(Cl)cc5)CC4)n3)ccc21`: 1190 s.
Turning to `CCOC(=O)C(=O)Nc1ccc(OC)c(OC)c1`, the RP-LC retention time is 650 s.
With `O=C(c1cccs1)N1CCN(c2nnc3ccc(Cl)cn23)CC1`, the RP-LC retention time was 691 s.
The same measure for `CCc1ccccc1NC(=O)N1CCc2nc(-c3ccc(Cl)cc3)ncc2C1`: 1160 s; for `Cc1ccc(-c2coc(-c3ccc(NC(=O)c4cccs4)cc3)n2)c(C)c1`: 1270 s; for `O=C(c1ccc2nsnc2c1)N1CCN(S(=O)(=O)C2CC2)CC1`: 657 s.
The same measure for `O=C(NCc1cccs1)C1CCCN(C(=O)C2Sc3ccccc3NC2=O)C1` (centres undefined): 725 s.
